# Measured values from patent publication US6451801B1, “Compounds and methods for treatment of asthma, allergy and inflammatory disorders” (UCB, S.A., priority 1999, dated 2002).
# Read-outs that look alike come from different tables or passages of the source.
# Assays:
# 15-lipoxygenase = target: T1, 15-lipoxygenase (Oryctolagus cuniculus, UniProt P12530); assay: Inhibition of 15-lipoxygenase (15-HETE production); assay type: biochemical; details: 15-lipoxygenase from rabbit peritoneal polymorphonuclear leukocytes, 5 min at 37° C.
# T1 construct: from tissue; host or cells: rabbit peritoneal polymorphonuclear leukocytes
# T1 sequence (P12530 1-663): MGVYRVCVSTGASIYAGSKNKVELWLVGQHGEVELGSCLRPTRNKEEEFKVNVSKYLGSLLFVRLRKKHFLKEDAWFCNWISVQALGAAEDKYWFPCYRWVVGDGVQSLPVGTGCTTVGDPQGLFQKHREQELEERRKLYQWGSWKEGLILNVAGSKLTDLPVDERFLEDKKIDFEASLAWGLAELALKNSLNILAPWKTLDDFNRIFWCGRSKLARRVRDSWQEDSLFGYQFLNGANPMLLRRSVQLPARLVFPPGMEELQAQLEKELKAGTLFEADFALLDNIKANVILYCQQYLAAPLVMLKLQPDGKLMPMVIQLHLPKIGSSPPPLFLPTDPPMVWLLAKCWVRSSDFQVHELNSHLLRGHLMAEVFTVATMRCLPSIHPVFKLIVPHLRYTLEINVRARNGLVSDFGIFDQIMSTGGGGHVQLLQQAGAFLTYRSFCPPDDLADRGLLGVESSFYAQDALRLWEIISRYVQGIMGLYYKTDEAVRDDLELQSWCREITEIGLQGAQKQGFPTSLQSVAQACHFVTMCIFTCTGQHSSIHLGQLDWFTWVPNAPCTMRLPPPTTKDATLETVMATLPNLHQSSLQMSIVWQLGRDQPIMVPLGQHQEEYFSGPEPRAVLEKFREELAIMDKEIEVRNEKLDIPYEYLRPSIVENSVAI
# From the text: This assay examines the ability of a compound to inhibit production of 15-hydroxy-5, 8, 11, 13-eicosatetraenoic acid (15-HETE) via the action of 15-lipoxygenase on arachidonic acid. 15-lipoxygenase was purified from rabbit peritoneal polymorphonuclear leukocytes. The enzyme is responsible for the conversion of arachidonic acid (via oxygenation at carbon 15 of arachidonic acid) to 15-hydroperoxy-5, 8, 11, 13-eicosatetraenoic acid (15-HPETE), which then reduced to 15-hydroxy-5, 8, 11, 13-eicosatetraenoic acid (15-HETE).
# The procedure for the assay is as follows. Arachidonic acid is co-incubated with […] for 5 min at 37° C. in the presence or absence of different concentrations of test compound (10^−8 to 10^−5 M). Production of 15-HETE in each sample is then measured by radioimmunoassay. The 15-HETE levels produced in the vehicle control sample are then compared to those in which the test compound has been added.
# [1] = target: T2, human 5-lipoxygenase enzyme (Homo sapiens, UniProt P09917); assay: Inhibition of LTB4 production in human whole blood; assay type: cell-based
# T2 construct: endogenous in cells; host or cells: human whole blood (leukocytes) stimulated with A23187
# T2 sequence (P09917 1-674): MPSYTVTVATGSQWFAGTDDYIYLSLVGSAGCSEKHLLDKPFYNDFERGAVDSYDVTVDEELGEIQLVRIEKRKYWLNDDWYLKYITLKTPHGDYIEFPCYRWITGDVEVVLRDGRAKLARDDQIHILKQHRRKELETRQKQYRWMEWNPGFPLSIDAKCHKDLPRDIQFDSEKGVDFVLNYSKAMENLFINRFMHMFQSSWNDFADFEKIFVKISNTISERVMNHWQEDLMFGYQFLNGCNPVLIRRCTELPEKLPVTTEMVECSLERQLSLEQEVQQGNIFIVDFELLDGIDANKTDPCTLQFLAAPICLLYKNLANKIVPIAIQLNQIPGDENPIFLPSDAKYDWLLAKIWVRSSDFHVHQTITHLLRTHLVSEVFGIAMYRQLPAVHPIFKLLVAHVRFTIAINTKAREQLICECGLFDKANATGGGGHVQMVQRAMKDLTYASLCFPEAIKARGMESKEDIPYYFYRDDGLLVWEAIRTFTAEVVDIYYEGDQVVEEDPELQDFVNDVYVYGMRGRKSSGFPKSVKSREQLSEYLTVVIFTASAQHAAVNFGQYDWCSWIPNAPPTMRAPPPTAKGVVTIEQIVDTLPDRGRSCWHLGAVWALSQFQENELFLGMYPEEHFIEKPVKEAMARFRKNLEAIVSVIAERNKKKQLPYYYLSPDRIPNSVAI
# Method: This assay examines the ability of a compound to inhibit leukotriene B4 production from human blood stimulated with calcium ionophore. As this production of leukotriene B4 is mediated via the activation of the 5-lipoxygenase enzyme, this assay is predictive of a compound's ability to inhibit the human 5-lipoxygenase enzyme.
# The procedure for the assay is as follows. Blood is drawn from normal human volunteers into tubes containing heparin. 1 ml of the heparinized blood is pipetted into a 1.5 ml polypropylene tube. To this sample is added either different concentrations of the test compound (5 μl) dissolved in DMSO or 5 μl of DMSO as a vehicle control. These samples are incubated in a water bath, at 37° C. for 15 min. 5 μl of the calcium ionophore A23187 (at a final concentration of 50 μM) is then added to each sample, which is vortexed and placed back in the water bath for 30 min. The samples are then centrifuged at 2500 rpm for 10 min. at 4° C. 50 μl of the supernatant is transferred into pre-cooled Eppendorf tubes containing 950 μl of enzyme immunoassay (EIA) buffer. A commercially available EIA kit (Cayman Chemical Co., Ann Arbor, Mich., USA) is used to subsequently measure the LTB4 production in the samples. The LTB4 levels produced in the vehicle control sample is then compared to those in which the test compound has been added. From this a percent inhibition of LTB4 production by each concentration of test compound is calculated and the IC50 for inhibition of LTB4 production for each test compound is determined.
# [2] = system: histamine-induced bronchoconstriction; assay: Antihistaminergic activity in vivo (histamine-induced bronchoconstriction); details: guinea pig, oral
# Method: Male, Hartley guinea pigs are obtained from Charles River Labs at a body weight of 350 -400 grams. Inhibition of histamine activity is measured by the method of Konzett and Rössler (Naonyn-Schmiedebergs Arch. Exp. Path. Pharmakol. 195, 71-74 (1940). Anaethetized guinea pigs are subjected to artificial ventilation. The endotracheal pressure is recorded. Bronchoconstriction is induced by successive intravenous injections of histamine. The test compounds are administered orally in a 1% methocellulose suspension at set timepoints prior to the administration of histamine.
# The results (Table 2) show the percent inhibition of histamine-induced bronchoconstriction by selected compounds at multiple time points post oral dosing. 50% inhibition or greater is considered significant.
# 5-lipoxygenase = assay: 5-Lipoxygenase inhibitory activity in vivo; details: guinea pig, oral, 2 mg/kg
# Method: Male, Hartley guinea pigs are obtained from Charles River Labs at a body weight of 350-400 grams. Compounds are prepared at a volume of [1-2 mg/ml] in 1% methocellulose for oral dosing. Animals are separated into groups of five (5). Each assay includes a control group dosed with vehicle. Each group of animals is dosed with either vehicle or compound by oral gavage. Animals are allowed to rest for one, three, or six hours after dosing. Control animals are allowed to rest for three hours. At the appropriate times, the animals are anesthetized with Urethane at 1.5 g/kg, ip. Blood is drawn into a heparinized syringe via cardiac puncture. Blood (0.5 ml) is aliquoted into separately-labeled 1.5 ml eppendorf tubes. Each sample is loaded with 5 μl of [15 mM] Arachidonic Acid, and placed in a 37° C. water bath for five minutes. After five minutes, the blood is stimulated with 5 μl of [5 mM] A23187 (Calcium Ionophore) and retained in the water bath for an additional 30 minutes. After the thirty minutes, the blood samples are removed from the water bath and centrifuged at 14,000 rpm for 2 minutes. Plasma is diluted to EIA buffer and an EIA is performed following manufacturer instructions (Cayman Chemical Co., Ann Arbor, Mich., USA). The results (Table 3) show the percent inhibition of 5-lipoxygenase by selected compounds at multiple time points post oral dosing. 50% inhibition or greater is considered significant.
# human cloned H1 receptor = target: T3, human cloned H1 receptor (Homo sapiens, UniProt P35367); assay: CHO-K1 H1R binding assay; details: 3H-pyrilamine 2 nM, CHO-K1 membranes, 3 hours at 37° C.; read-out: CHOH1 K1
# T3 construct: expressed in transfected cells; host or cells: CHO-K1
# T3 sequence (P35367 whole entry): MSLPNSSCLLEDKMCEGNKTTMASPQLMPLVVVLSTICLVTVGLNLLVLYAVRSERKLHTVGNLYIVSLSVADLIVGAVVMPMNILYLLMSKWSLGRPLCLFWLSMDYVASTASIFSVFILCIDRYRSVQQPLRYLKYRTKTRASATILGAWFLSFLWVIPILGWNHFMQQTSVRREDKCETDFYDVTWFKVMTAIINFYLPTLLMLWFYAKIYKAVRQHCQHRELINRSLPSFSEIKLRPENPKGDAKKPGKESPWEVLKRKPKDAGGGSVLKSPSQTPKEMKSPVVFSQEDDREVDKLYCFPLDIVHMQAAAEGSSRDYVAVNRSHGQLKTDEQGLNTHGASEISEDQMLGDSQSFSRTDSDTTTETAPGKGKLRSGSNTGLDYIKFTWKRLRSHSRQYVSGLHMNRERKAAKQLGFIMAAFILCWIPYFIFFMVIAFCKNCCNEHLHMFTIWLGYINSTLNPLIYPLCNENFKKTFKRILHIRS
# Method: CHO-K1 cells expressing the human cloned H1 receptor are grown to confluence in tissue culture dishes. Cells are harvested using D-PBS buffer (JRH Biosciences), kept at 4° C., centrifuging to pellet cells (4° C., 500 g, 10 min). The final cell pellet is homogenized and resuspended using Tris/sucrose buffer (20 mM Tris, 250 mM sucrose, pH 7.4 at 4° C.). Aliquots of the membrane preparation are stored at −70° C.
# On the day of assay, the membrane preparation is thawed and centrifuged (TLA100.3 rotor, 4° C., 15 min, 23,000 rpm). The pellet is resuspended in Tris/sucrose buffer initially and then diluted further as necessary using assay buffer A (50 mM Na/KPO4, 2 mM MgCl2, 0.5% (w/v) BSA, pH 7.5).
# For the binding assay, the membrane preparation, test compound and ^3H-pyrilamine (2 nM final) in buffer A with 1% (v/v) DMSO final are incubated in a 96-well polypropylene plate for 3 hours at 37° C. Non-specific binding is determined in the presence of 10 μM pyrilamine. A 96-well harvester (Packard) is used to harvest the 96-well plate onto a GF/B filter plate pre-treated with 0.1% (v/v) PEI. The plate is counted in a Packard Topcounter after adding Microscint 20 (Packard) scintillation fluid. The Ki for each compound at the histamine H1 receptor is then calculated from these counts.
# [3] = human whole blood, calcium ionophore A23187 50 μM, LTB4 by EIA, read-out: HWB IC50
# [4] = Cavia porcellus, 2 mg/kg, 3 hrs
# [5] = Cavia porcellus, 2 mg/kg, 6 hrs
IC50 (15-lipoxygenase),"IC50 [1, 3]",Ki (human cloned H1 receptor),SMILES,"inhibition in vivo at 2 mg/kg [2, 4]",% inhibition of 5-lipoxygenase (5-lipoxygenase; 3 hours),% inhibition of 5-lipoxygenase (5-lipoxygenase; 6 hours),"inhibition in vivo at 2 mg/kg [2, 5]",% inhibition of 5-lipoxygenase (5-lipoxygenase; 1 hour),"% inhibition of histamine-induced bronchoconstriction ([2]; 2 mg/kg, 6 hrs)",IC50 [1],"inhibition in vivo at 5 mg/kg ([2]; Cavia porcellus, 5 mg/kg, 3 hrs)"
,287 nM,10 nM,"NC(=O)N(O)CCC#Cc1cccc(OCCN2CCN([C@H](c3ccccc3)c3ccc(Cl)cc3)CC2)c1 [Compound 23, N-{4-[3-(2-{4-[(1R)(4-chlorophenyl)phenylmethyl]piperazinyl}ethoxy)phenyl]but-3-ynyl}amino-N-hydroxyamide]",80%,,,92%,80%,,,
,254 nM,15 nM,"NC(=O)N(O)CCCCc1ccc(OCCN2CCN([C@H](c3ccccc3)c3ccc(Cl)cc3)CC2)cc1 [Compound 17, N-{4-[4-(2-{4-[(1R) (4-chlorophenyl)phenyl-methyl]piperazinyl}ethoxy)phenyl]butyl} amino-N-hydroxyamide]",66%,70%,94%,73%,,,,
46 nM,85 nM,135 nM,"NC(=O)c1cc(C#CCCN(O)C(N)=O)ccc1OCCN1CCN([C@H](c2ccccc2)c2ccc(Cl)cc2)CC1 [Compound 35, 2-(2-{4-[(1R) (4-chlorophenyl)phenyl-methyl]piperazinyl}ethoxy)-5-[4-(amino-hydroxycarbonylamino)but-1-ynyl]benzamide]",72%,97%,,88%,87%,,,
61 nM,105 nM,,"NC(=O)N(O)CCC#Cc1ccc(OCCCN2CCN([C@H](c3ccccc3)c3ccc(Cl)cc3)CC2)cc1 [Compound 52, N-{4-[4-(3-{4-[(1R)(4-chlorophenyl)phenyl-methyl]piperazinyt}propoxy)phenyl]but-3-ynyl}amino-N-hydroxyamide]",69%,61%,,,,,,
1300 nM,1520 nM,24 nM,"NC(=O)N(O)Cc1ccc(OCCN2CCN([C@H](c3ccccc3)c3ccc(Cl)cc3)CC2)cc1 [Compound 1, N-{[4-(2-{4-[(1R) (4-chlorophenyl)phenylmethyl]piperazinyl}ethoxy)phenyl]methyl} amino-N-hydroxyamide]",,,,,62%,,,56%
170 nM,263 nM,,NC(=O)N(O)CCC#Cc1ccc(OCCN2CCC(=C3c4ccc(Cl)cc4CCc4cccnc43)CC2)cc1 [Compound 32],65%,,,,88%,,,

SMILES,IC50 (15-lipoxygenase),"IC50 [1, 3]",Ki (human cloned H1 receptor),"inhibition in vivo at 2 mg/kg [2, 4]",% inhibition of 5-lipoxygenase (5-lipoxygenase; 3 hours),% inhibition of 5-lipoxygenase (5-lipoxygenase; 6 hours),"inhibition in vivo at 2 mg/kg [2, 5]",% inhibition of 5-lipoxygenase (5-lipoxygenase; 1 hour),"% inhibition of histamine-induced bronchoconstriction ([2]; 2 mg/kg, 6 hrs)",IC50 [1],"inhibition in vivo at 5 mg/kg ([2]; Cavia porcellus, 5 mg/kg, 3 hrs)"
"NC(=O)N(O)CCC#Cc1ccc(OCCCCN2CCN(C(c3ccc(F)cc3)c3ccc(F)cc3)CC2)cc1 [Compound 80, amino-N-{4-[4-(4-{4-[bis(4-fluorophenyl)methyl]piperazinyl}butoxy)phenyl]but-3-ynyl}-N-hydroxyamide]",110 nM,78 nM,,98%,73%,88%,,,,,
"NC(=O)N(O)CCC#Cc1ccc(CN2CCN([C@H](c3ccccc3)c3ccc(Cl)cc3)CC2)o1 [Compound 27, N-{4-[5-({4-[(1R) (4-chlorophenyl)phenylmethyl]piperazinyl}methyl)(2-furyl)]but-3-ynyl}amino-N-hydroxyamide]",,650 nM,150 nM,86%,,,91%,88%,91%,,
"NC(=O)N(O)CCC#Cc1ccc(CN2CCN(C(c3ccc(F)cc3)c3ccc(F)cc3)CC2)o1 [Compound 34, amino-N-{4-[5-({4-[bis (4-fluorophenyl)methyl]piperazinyl}methyl) (2-furyl)]but-3-ynyl}-N-hydroxyamide]",,,550 nM,81%,38%,,89%,,,142 nM,
